Reference: PubChem BioAssay (NCI)
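Test compounds were applied to cells in 96-well plates for 48 hours at 5 doses. At the GI50, growth is halved. TGI denotes the concentration required for complete inhibition of growth.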

What was measured:
Experiment in all cases: NCI-60 cell line screen, 48 h
786-0 renal = test system: 786-0 renal
MALME-3M melanoma = test system: MALME-3M melanoma
MOLT-4 leukemia = test system: MOLT-4 leukemia
SF-539 CNS = test system: SF-539 CNS
SK-MEL-2 melanoma = test system: SK-MEL-2 melanoma
SK-MEL-28 melanoma = test system: SK-MEL-28 melanoma
SN12C renal = test system: SN12C renal
U251 CNS = test system: U251 CNS
RXF 393 renal = test system: RXF 393 renal
TK-10 renal = test system: TK-10 renal

| SMILES | TGI (786-0 renal) | TGI (MALME-3M melanoma) | TGI (MOLT-4 leukemia) | TGI (SF-539 CNS) | TGI (SK-MEL-2 melanoma) | TGI (SK-MEL-28 melanoma) | TGI (SN12C renal) | TGI (U251 CNS) | TGI (RXF 393 renal) | TGI (TK-10 renal) | GI50 (786-0 renal) | GI50 (MALME-3M melanoma) | GI50 (MOLT-4 leukemia) | GI50 (RXF 393 renal) | GI50 (SF-539 CNS) | GI50 (SK-MEL-28 melanoma) | GI50 (U251 CNS) | GI50 (SK-MEL-2 melanoma) | GI50 (SN12C renal) | GI50 (TK-10 renal) |
| --- | --- | --- | --- | --- | --- | --- | --- | --- | --- | --- | --- | --- | --- | --- | --- | --- | --- | --- | --- | --- |
| COc1ccc2c(c1)[n+]([O-])c(-c1ccc(Cl)c(Cl)c1)c(N)[n+]2[O-] | > 100 µM | 58.5 µM | > 100 µM | 68.6 µM | > 100 µM | > 100 µM | > 100 µM | > 100 µM | – | – | – | – | – | – | – | – | – | – | – | – |
| S=C1OC2C3C4CC5C3C(O1)C1C5C4C21 (stereo unspecified) | > 100 µM | > 100 µM | > 100 µM | > 100 µM | – | > 100 µM | > 100 µM | > 100 µM | > 100 µM | > 100 µM | – | – | – | – | – | – | – | – | – | – |
| NC(=O)c1ccc(-c2c3ccccc3cc3c2ccc2ccccc23)cc1 | 14.8 µM | 54 µM | > 100 µM | 15.5 µM | – | 36 µM | – | 19 µM | 7.48 µM | – | 3.64 µM | 4.99 µM | 5.5 µM | 2120 nM | 3.59 µM | 4.39 µM | 3.61 µM | – | – | – |
| C/C(=N\n1c(N)c(C#N)c(-c2ccc(Cl)cc2)c(C#N)c1=O)c1cccnc1 | > 100 µM | > 100 µM | > 100 µM | – | > 100 µM | > 100 µM | > 100 µM | > 100 µM | – | > 100 µM | > 100 µM | > 100 µM | > 100 µM | – | – | > 100 µM | > 100 µM | > 100 µM | > 100 µM | > 100 µM |
| Cc1cc(Br)cc(C)c1NC(=O)C(=O)C(C(=O)c1ccc(Cl)c(Cl)c1)C1OC(=O)c2ccccc21 (stereo unspecified) | > 100 µM | > 100 µM | > 100 µM | > 100 µM | > 100 µM | – | > 100 µM | > 100 µM | > 100 µM | > 100 µM | – | – | – | – | – | – | – | – | – | – |
| ClCc1ccc(Cn2cnc3ncnc(Cl)c32)cc1 | 3.05 µM | – | – | 3.74 µM | > 100 µM | – | 14.9 µM | 2.29 µM | 4.14 µM | 2.92 µM | 1.68 µM | – | – | 1670 nM | 2.08 µM | – | 1.09 µM | 6.3 µM | 3.61 µM | 1.48 µM |
| CC(=O)Nc1[nH]c(=O)[nH]c(=O)c1N(C(C)=O)C(C)=O | > 100 µM | > 100 µM | > 100 µM | > 100 µM | > 100 µM | > 100 µM | > 100 µM | > 100 µM | > 100 µM | – | – | – | – | – | – | – | – | – | – | – |
| CC(=O)OCC1OC(O[C@@H]2C[C@H]3C(C)(C)[C@H](OC(C)=O)CC[C@]3(C)[C@H]3CC[C@@H]4[C@]5(CC[C@@]4(C)[C@@]32C)O[C@@H]([C@H](O)C(C)(C)O)C[C@@H]5C)C(O)C(O)C1O (stereo partly specified) | 21.9 µM | 22.4 µM | 12.2 µM | – | 19.7 µM | 24 µM | 24 µM | 19.1 µM | 16.1 µM | – | 8.79 µM | 10.3 µM | 3.13 µM | – | – | 10.2 µM | – | 6.04 µM | 11.1 µM | – |
| COc1cc(SC)ccc1C(=O)N1CCCC(C)C1 (stereo unspecified) | > 100 µM | > 100 µM | > 100 µM | > 100 µM | > 100 µM | > 100 µM | > 100 µM | > 100 µM | – | > 100 µM | > 100 µM | > 100 µM | 77.7 µM | – | > 100 µM | > 100 µM | > 100 µM | > 100 µM | > 100 µM | > 100 µM |
